Legend:
Experiment in all cases: relative viability (nuclei count vs DMSO), 5 days (fraction); higher = more cells survive
NCI-H1793 = tested on: NCI-H1793
Summary of the method: (§1)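 Relative viability is defined as nuclei in treated wells over nuclei in vehicle wells. Duplicate plates were run and medians reported. Lung cancer cell lines in 1536-well plates were dosed by pin tool one day after seeding, with one drug or with a fixed anchor-drug dose plus five library-drug doses (not always all listed) in √10 steps, and nuclei were counted after 5 days.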

NCI-H1915 = tested on: NCI-H1915
Summary of the method: as §1

LCLC-97TM1 = tested on: LCLC-97TM1
Summary of the method: as §1

A-427 = tested on: A-427
Summary of the method: as §1

NCI-H460 = tested on: NCI-H460
Summary of the method: as §1

NCI-H322M = tested on: NCI-H322M
Summary of the method: as §1

NCI-H23 = tested on: NCI-H23
Summary of the method: as §1

NCI-H1755 = tested on: NCI-H1755
Summary of the method: as §1

NCI-H1666 = tested on: NCI-H1666
Summary of the method: as §1

SK-LU-1 = tested on: SK-LU-1
Summary of the method: as §1

PC-3 [JPC-3] = tested on: PC-3 [JPC-3]
Summary of the method: as §1

LU99A = tested on: LU99A
Summary of the method: as §1

NCI-H2126 = tested on: NCI-H2126
Summary of the method: as §1

LOU-NH91 = tested on: LOU-NH91
Summary of the method: as §1

LXF-289 = tested on: LXF-289
Summary of the method: as §1

BEN = tested on: BEN
Summary of the method: as §1

NCI-H1395 = tested on: NCI-H1395
Summary of the method: as §1

NCI-H650 = tested on: NCI-H650
Summary of the method: as §1

NCI-H2023 = tested on: NCI-H2023
Summary of the method: as §1

NCI-H2170 = tested on: NCI-H2170
Summary of the method: as §1

HARA = tested on: HARA
Summary of the method: as §1

NCI-H1944 = tested on: NCI-H1944
Summary of the method: as §1

Work on `O=c1[nH]c2ccccc2n1C1CCN(CCCC(c2ccc(F)cc2)c2ccc(F)cc2)CC1` [Pimozide] + CS(=O)(=O)CCNCc1ccc(-c2ccc3ncnc(Nc4ccc(OCc5cccc(F)c5)c(Cl)c4)c3c2)o1 [Lapatinib] (partner 2 µM) yielded a relative viability (NCI-H1793; first compound 0.08 µM) of 0.785, a relative viability (NCI-H1793; first compound 0.253 µM) of 0.641 and a relative viability (NCI-H1793; first compound 0.8 µM) of 0.593. The relative viability (NCI-H1793; first compound 2.53 µM) was 0.481, the relative viability (NCI-H1793; first compound 8 µM) was 0.654 and the relative viability (NCI-H1915; first compound 0.08 µM) was 1.03. The relative viability (NCI-H1915; first compound 0.253 µM) was 0.927, the relative viability (NCI-H1915; first compound 0.8 µM) was 0.585 and the relative viability (NCI-H1915; first compound 2.53 µM) was 0.947. For the same compound, the relative viability (NCI-H1915; first compound 8 µM) was 0.926, the relative viability (LCLC-97TM1; first compound 0.08 µM) was 0.957 and the relative viability (LCLC-97TM1; first compound 0.253 µM) was 0.856. The relative viability (LCLC-97TM1; first compound 0.8 µM) was 0.957, the relative viability (LCLC-97TM1; first compound 2.53 µM) was 0.981 and the relative viability (LCLC-97TM1; first compound 8 µM) was 0.814. It also gave a relative viability (A-427; first compound 0.08 µM) of 0.941, a relative viability (A-427; first compound 0.253 µM) of 1.03 and a relative viability (A-427; first compound 0.8 µM) of 1.01. It also gave a relative viability (A-427; first compound 2.53 µM) of 0.911, a relative viability (A-427; first compound 8 µM) of 0.985 and a relative viability (NCI-H460; first compound 0.08 µM) of 1.06. For the same compound, the relative viability (NCI-H460; first compound 0.253 µM) was 0.859, the relative viability (NCI-H460; first compound 0.8 µM) was 0.949 and the relative viability (NCI-H460; first compound 2.53 µM) was 0.856. For the same compound, the relative viability (NCI-H460; first compound 8 µM) was 0.826, the relative viability (NCI-H322M; first compound 0.253 µM) was 0.56 and the relative viability (NCI-H322M; first compound 0.8 µM) was 0.584. The relative viability (NCI-H322M; first compound 2.53 µM) was 0.635, the relative viability (NCI-H322M; first compound 8 µM) was 0.525 and the relative viability (NCI-H23; first compound 0.08 µM) was 0.938. It also gave a relative viability (NCI-H23; first compound 0.253 µM) of 1.01, a relative viability (NCI-H23; first compound 0.8 µM) of 1.06 and a relative viability (NCI-H23; first compound 2.53 µM) of 0.847. For the same compound, the relative viability (NCI-H23; first compound 8 µM) was 0.922, the relative viability (NCI-H1755; first compound 0.08 µM) was 1.01 and the relative viability (NCI-H1755; first compound 0.253 µM) was 1.01. It also gave a relative viability (NCI-H1755; first compound 0.8 µM) of 0.951, a relative viability (NCI-H1755; first compound 2.53 µM) of 1.03 and a relative viability (NCI-H1755; first compound 8 µM) of 0.849. It also gave a relative viability (NCI-H1666; first compound 0.08 µM) of 0.592, a relative viability (NCI-H1666; first compound 0.253 µM) of 0.716 and a relative viability (NCI-H1666; first compound 0.8 µM) of 0.621. For the same compound, the relative viability (NCI-H1666; first compound 2.53 µM) was 0.365, the relative viability (NCI-H1666; first compound 8 µM) was 0.464 and the relative viability (SK-LU-1; first compound 0.08 µM) was 0.773. For the same compound, the relative viability (SK-LU-1; first compound 0.253 µM) was 0.846, the relative viability (SK-LU-1; first compound 0.8 µM) was 0.859 and the relative viability (SK-LU-1; first compound 2.53 µM) was 0.826. It also gave a relative viability (SK-LU-1; first compound 8 µM) of 0.731, a relative viability (PC-3 [JPC-3]; first compound 0.253 µM) of 0.414 and a relative viability (PC-3 [JPC-3]; first compound 0.8 µM) of 0.409. The relative viability (PC-3 [JPC-3]; first compound 2.53 µM) was 0.441, the relative viability (PC-3 [JPC-3]; first compound 8 µM) was 0.406 and the relative viability (LU99A; first compound 0.08 µM) was 0.969. For the same compound, the relative viability (LU99A; first compound 0.253 µM) was 0.982, the relative viability (LU99A; first compound 0.8 µM) was 0.757 and the relative viability (LU99A; first compound 2.53 µM) was 1.03. For the same compound, the relative viability (LU99A; first compound 8 µM) was 0.888, the relative viability (NCI-H2126; first compound 0.08 µM) was 0.743 and the relative viability (NCI-H2126; first compound 0.253 µM) was 0.675. For the same compound, the relative viability (NCI-H2126; first compound 0.8 µM) was 0.708, the relative viability (NCI-H2126; first compound 2.53 µM) was 0.724 and the relative viability (NCI-H2126; first compound 8 µM) was 0.766. It also gave a relative viability (LOU-NH91; first compound 0.08 µM) of 0.736, a relative viability (LOU-NH91; first compound 0.253 µM) of 0.694 and a relative viability (LOU-NH91; first compound 0.8 µM) of 0.751. The relative viability (LOU-NH91; first compound 2.53 µM) was 0.833, the relative viability (LOU-NH91; first compound 8 µM) was 0.785 and the relative viability (LXF-289; first compound 0.08 µM) was 0.863. For the same compound, the relative viability (LXF-289; first compound 0.253 µM) was 0.937, the relative viability (LXF-289; first compound 0.8 µM) was 0.882 and the relative viability (LXF-289; first compound 2.53 µM) was 0.87. It also gave a relative viability (LXF-289; first compound 8 µM) of 0.829, a relative viability (BEN; first compound 0.08 µM) of 0.615 and a relative viability (BEN; first compound 0.253 µM) of 0.854. The relative viability (BEN; first compound 0.8 µM) was 0.73, the relative viability (BEN; first compound 2.53 µM) was 0.669 and the relative viability (BEN; first compound 8 µM) was 0.728. It also gave a relative viability (NCI-H1395; first compound 0.08 µM) of 0.966, a relative viability (NCI-H1395; first compound 0.253 µM) of 1.17 and a relative viability (NCI-H1395; first compound 0.8 µM) of 1.06. It also gave a relative viability (NCI-H1395; first compound 2.53 µM) of 0.756, a relative viability (NCI-H1395; first compound 8 µM) of 0.838 and a relative viability (NCI-H650; first compound 0.08 µM) of 1.03. For the same compound, the relative viability (NCI-H650; first compound 0.253 µM) was 0.861, the relative viability (NCI-H650; first compound 0.8 µM) was 0.694 and the relative viability (NCI-H650; first compound 2.53 µM) was 0.716. It also gave a relative viability (NCI-H650; first compound 8 µM) of 0.835, a relative viability (NCI-H2023; first compound 0.08 µM) of 0.793 and a relative viability (NCI-H2023; first compound 0.253 µM) of 0.964. For the same compound, the relative viability (NCI-H2023; first compound 0.8 µM) was 0.592, the relative viability (NCI-H2023; first compound 2.53 µM) was 0.729 and the relative viability (NCI-H2023; first compound 8 µM) was 0.412. The relative viability (NCI-H2170; first compound 0.08 µM) was 0.277, the relative viability (NCI-H2170; first compound 0.253 µM) was 0.278 and the relative viability (NCI-H2170; first compound 0.8 µM) was 0.276. For the same compound, the relative viability (NCI-H2170; first compound 2.53 µM) was 0.283, the relative viability (NCI-H2170; first compound 8 µM) was 0.272 and the relative viability (HARA; first compound 0.08 µM) was 0.765. For the same compound, the relative viability (HARA; first compound 0.253 µM) was 0.963, the relative viability (HARA; first compound 0.8 µM) was 0.755 and the relative viability (HARA; first compound 2.53 µM) was 0.776. It also gave a relative viability (HARA; first compound 8 µM) of 0.561, a relative viability (NCI-H1944; first compound 0.08 µM) of 0.802 and a relative viability (NCI-H1944; first compound 0.253 µM) of 0.76. The relative viability (NCI-H1944; first compound 0.8 µM) was 0.62, the relative viability (NCI-H1944; first compound 2.53 µM) was 0.772 and the relative viability (NCI-H1944; first compound 8 µM) was 0.794.

Reference: the supplement of paper PMC10307832
